Patent publication US20070021434A1, “NON-NUCLEOSIDE ANTI-HEPACIVIRUS AGENTS AND USES THEREOF” (Migenix Inc., priority 2005, published 2007)

Target: HCV RdRp (NS5B) (UniProt P26663)
Format: biochemical, hepatitis C virus

Sequence of HCV RdRp (NS5B) (P26663 whole entry, looked up): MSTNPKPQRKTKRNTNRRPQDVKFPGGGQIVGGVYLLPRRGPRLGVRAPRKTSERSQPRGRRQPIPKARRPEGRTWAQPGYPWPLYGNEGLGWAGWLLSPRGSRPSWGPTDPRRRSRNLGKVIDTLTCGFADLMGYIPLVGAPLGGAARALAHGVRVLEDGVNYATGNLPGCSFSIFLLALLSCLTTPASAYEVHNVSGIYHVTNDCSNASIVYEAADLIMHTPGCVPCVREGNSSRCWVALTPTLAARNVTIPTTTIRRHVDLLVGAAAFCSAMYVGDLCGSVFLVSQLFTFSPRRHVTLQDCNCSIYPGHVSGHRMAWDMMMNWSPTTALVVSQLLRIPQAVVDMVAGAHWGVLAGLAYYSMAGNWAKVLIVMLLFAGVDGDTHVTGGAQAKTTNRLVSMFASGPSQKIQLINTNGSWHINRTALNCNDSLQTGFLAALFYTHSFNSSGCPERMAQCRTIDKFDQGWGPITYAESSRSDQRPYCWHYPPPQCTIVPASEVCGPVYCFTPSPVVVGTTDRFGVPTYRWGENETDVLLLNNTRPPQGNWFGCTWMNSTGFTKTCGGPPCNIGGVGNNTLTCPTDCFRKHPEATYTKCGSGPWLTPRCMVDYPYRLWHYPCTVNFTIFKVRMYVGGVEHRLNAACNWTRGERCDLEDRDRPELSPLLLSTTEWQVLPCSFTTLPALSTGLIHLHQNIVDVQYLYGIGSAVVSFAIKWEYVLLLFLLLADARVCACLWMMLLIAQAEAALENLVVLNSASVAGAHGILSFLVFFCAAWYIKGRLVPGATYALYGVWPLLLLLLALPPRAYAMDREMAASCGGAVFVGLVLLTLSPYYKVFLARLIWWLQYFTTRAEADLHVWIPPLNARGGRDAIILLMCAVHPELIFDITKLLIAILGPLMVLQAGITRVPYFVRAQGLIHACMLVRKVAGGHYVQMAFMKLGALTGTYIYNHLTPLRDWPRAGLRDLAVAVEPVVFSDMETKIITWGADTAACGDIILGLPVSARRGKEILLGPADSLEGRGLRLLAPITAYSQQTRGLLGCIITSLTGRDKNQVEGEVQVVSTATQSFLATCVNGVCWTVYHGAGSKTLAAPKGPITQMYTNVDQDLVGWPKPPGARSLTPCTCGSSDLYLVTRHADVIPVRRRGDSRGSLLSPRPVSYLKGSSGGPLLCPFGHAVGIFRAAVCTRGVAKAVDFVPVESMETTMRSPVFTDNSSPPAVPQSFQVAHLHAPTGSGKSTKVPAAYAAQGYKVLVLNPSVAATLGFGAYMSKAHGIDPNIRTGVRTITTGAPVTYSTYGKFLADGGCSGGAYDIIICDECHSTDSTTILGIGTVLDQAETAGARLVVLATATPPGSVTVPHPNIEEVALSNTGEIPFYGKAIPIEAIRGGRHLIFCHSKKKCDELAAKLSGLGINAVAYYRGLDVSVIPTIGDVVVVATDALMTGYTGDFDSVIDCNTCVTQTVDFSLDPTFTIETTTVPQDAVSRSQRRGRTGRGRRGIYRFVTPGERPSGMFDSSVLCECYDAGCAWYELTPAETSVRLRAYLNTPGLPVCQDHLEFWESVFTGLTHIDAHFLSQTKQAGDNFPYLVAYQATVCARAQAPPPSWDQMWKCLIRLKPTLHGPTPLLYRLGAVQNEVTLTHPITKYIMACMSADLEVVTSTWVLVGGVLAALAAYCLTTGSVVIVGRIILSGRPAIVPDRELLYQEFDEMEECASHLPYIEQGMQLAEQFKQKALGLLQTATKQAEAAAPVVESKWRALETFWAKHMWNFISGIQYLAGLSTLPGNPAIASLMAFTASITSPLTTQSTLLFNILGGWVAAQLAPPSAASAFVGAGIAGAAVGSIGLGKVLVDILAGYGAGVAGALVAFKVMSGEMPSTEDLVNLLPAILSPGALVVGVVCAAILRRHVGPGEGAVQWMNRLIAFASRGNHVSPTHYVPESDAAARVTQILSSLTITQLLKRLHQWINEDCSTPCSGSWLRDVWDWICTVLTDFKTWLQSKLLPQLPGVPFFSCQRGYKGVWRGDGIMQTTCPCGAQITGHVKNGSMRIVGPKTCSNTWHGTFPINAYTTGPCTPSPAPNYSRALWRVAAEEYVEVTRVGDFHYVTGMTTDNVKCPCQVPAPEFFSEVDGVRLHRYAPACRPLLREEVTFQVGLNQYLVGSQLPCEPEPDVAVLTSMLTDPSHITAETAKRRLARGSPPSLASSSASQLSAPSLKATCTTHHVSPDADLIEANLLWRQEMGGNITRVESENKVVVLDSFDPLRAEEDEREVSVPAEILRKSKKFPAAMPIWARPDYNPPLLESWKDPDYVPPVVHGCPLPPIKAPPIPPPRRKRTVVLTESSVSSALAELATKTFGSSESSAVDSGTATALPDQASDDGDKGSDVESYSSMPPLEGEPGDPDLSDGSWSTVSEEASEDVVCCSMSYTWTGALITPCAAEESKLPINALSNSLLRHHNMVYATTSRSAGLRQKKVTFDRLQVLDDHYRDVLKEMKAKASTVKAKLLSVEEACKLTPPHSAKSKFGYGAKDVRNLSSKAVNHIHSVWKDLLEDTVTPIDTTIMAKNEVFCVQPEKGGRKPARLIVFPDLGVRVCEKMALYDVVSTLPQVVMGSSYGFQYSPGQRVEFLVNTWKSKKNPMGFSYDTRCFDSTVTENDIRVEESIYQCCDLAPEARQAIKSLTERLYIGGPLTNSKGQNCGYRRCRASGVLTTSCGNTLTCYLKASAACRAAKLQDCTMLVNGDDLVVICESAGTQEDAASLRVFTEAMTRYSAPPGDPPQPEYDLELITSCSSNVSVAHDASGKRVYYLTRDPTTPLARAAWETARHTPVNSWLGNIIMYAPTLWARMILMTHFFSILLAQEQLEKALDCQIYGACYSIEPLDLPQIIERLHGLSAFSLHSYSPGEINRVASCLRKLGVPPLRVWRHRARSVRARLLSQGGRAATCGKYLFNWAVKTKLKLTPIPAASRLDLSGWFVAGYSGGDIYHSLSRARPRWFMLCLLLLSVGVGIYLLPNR

Question: With `CC(C)(C)OC(=O)NCCCC[C@H](N)C(=O)N(Cc1ccccc1)C1CCCCC1` [Compound 34, (S)-[5-AMINO-5-(BENZYL-CYCLOHEXYL-CARBAMOYL)-PENTYL]-CARBAMIC ACID TERT-BUTYL ESTER] as the molecule, how does the IC50 read?
Answer: The IC50 was 10 to 50 µM.

Question: How did the IC50 turn out when `Cc1ccc(NC(=O)C(CCCCN)NC(=O)c2ccc3ccccc3c2)cc1` [Compound 51, (S)-NAPHTHALENE-2-CARBOXYLIC ACID (5-AMINO-1-P-TOLYLCARBAMOYL-PENTYL)-AMIDE] was run?
Answer: Its IC50 is > 50 µM.

Question: How did the IC50 turn out when `NCCCC[C@H](NC(=O)Nc1ccc(OCc2ccccc2)cc1)C(=O)Nc1cccc2cc[nH]c12` [Compound 307, (S)-6-AMINO-2-[3-(4-BENZYLOXY-PHENYL)-UREIDO]-HEXANOIC ACID (1H-INDOL-7-YL)-AMIDE] was run?
Answer: The IC50 was 10 to 50 µM.

Question: For `Cc1ccc(NC(=O)C(CCCCN)NC(=O)Nc2cccc(-c3nc4ccccc4o3)c2)cc1` [Compound 271, (S)-6-AMINO-2-[3-(3-BENZOOXAZOL-2-YL-PHENYL)-UREIDO]-HEXANOIC ACID P-TOLYLAMIDE], which IC50 is on record?
Answer: Its IC50 is < 10 µM.

Question: How did the IC50 turn out when `Cc1ccc(NC(=O)CC2CNCCN2C(=O)OCC2c3ccccc3-c3ccccc32)cc1` (stereo not shown) [Compound 197, 2-(P-TOLYLCARBAMOYL-METHYL)-PIPERAZINE-1-CARBOXYLIC ACID 9H-FLUOREN-9-YLMETHYL ESTER] was run?
Answer: The IC50 was > 50 µM.

Question: Which IC50 does the source give for `Cc1ccc(NC(=O)C(CCCCN)NC(=O)CC2c3ccccc3-c3ccccc32)cc1` [Compound 53, (S)-6-AMINO-2-(2-9H-FLUOREN-9-YL-ACETYLAMINO)-HEXANOIC ACID P-TOLYLAMIDE] here?
Answer: Its IC50 is > 50 µM.

Question: With `Cc1ccc(NC(=O)C(CCCNC(N)=O)NC(=O)OCC2c3ccccc3-c3ccccc32)cc1` [Compound 113, (S)-(1-P-TOLYLCARBAMOYL-4-UREIDO-BUTYL)-CARBAMIC ACID 9H-FLUOREN-9-YLMETHYL ESTER] as the molecule, how does the IC50 read?
Answer: The IC50 was > 50 µM.

Question: With `Cc1ccc(NC(=O)C(CCCCN)NC(=O)CNCc2ccc(C(F)(F)F)cc2)cc1` [Compound 352, (S)-6-AMINO-2-[2-(4-TRIFLUOROMETHYL-BENZYLAMINO)-ACETYLAMINO]-HEXANOIC ACID P-TOLYLAMIDE] as the molecule, how does the IC50 read?
Answer: Its IC50 is > 50 µM.

Question: How did the IC50 turn out when `Cc1ccc(NC(=O)C(Cc2ccc(O)cc2)NC(=O)OCC2c3ccccc3-c3ccccc32)cc1` [Compound 380, (R)-[2-(4-HYDROXY-PHENYL)-1-P-TOLYLCARBAMOYL-ETHYL]-CARBAMIC ACID 9H-FLUOREN-9-YLMETHYL ESTER] was run?
Answer: The IC50 was > 50 µM.

Question: How did the IC50 turn out when `Cc1ccc(NC(=O)[C@H](CCCCN)NC(=O)NC2c3ccccc3-c3ccccc32)cc1` [Compound 126, (S)-6-AMINO-2-[3-(9H-FLUOREN-9-YL)-UREIDO]-HEXANOIC ACID P-TOLYLAMIDE] was run?
Answer: Its IC50 is < 10 µM.

Question: Which IC50 does the source give for `Cc1ccc(NC(=O)C(CCCCN)NS(=O)(=O)c2ccc(-c3ccccc3)cc2)cc1` [Compound 70, (S)-6-AMINO-2-(BIPHENYL-4-SULFONYLAMINO)-HEXANOIC ACID P-TOLYLAMIDE] here?
Answer: The IC50 was > 50 µM.

Question: `Cc1ccc(NC(=O)C(CCCCN)NC(=O)CNCc2ccccc2C)cc1` [Compound 338, (S)-6-AMINO-2-[2-(2-METHYL-BENZYLAMINO)-ACETYLAMINO]-HEXANOIC ACID P-TOLYLAMIDE] was tested. Which IC50 did it give?
Answer: The IC50 was > 50 µM.

Question: With `Cc1ccc(NC(=O)C2CC(OC(=O)CCN)CN2C(=O)OCC2c3ccccc3-c3ccccc32)cc1` [Compound 130, (S)-(4-(R)-(3-AMINO-PROPIONYLOXY)-2-P-TOLYLCARBAMOYL-PYRROLIDINE-1-CARBOXYLIC ACID 9H-FLUOREN-9-YLMETHYL ESTER)] as the molecule, how does the IC50 read?
Answer: Its IC50 is > 50 µM.

Question: For `Cc1ccc(NC(=O)[C@H](CCCCN)NC(=O)Nc2ccc(OCc3ccccc3)cc2)cc1C` [Compound 254, (S)-6-AMINO-2-[3-(4-BENZYLOXY-PHENYL)-UREIDO]-HEXANOIC ACID (3,4-DIMETHYL-PHENYL)-AMIDE], which IC50 is on record?
Answer: The IC50 was 10 to 50 µM.

Question: With `NCCCC[C@H](NC(=O)Nc1ccc(OCc2ccccc2)cc1)C(=O)NCC1CCCCC1` [Compound 265, (s)-6-AMINO-2-[3-(4-BENZYLOXY-PHENYL)-UREIDO]-HEXANOIC ACID CYCLOHEXYLMETHYL-AMIDE] as the molecule, how does the IC50 read?
Answer: The IC50 was 10 to 50 µM.

Question: How did the IC50 turn out when `NCCCC[C@H](NC(=O)OCC1c2ccccc2-c2ccccc21)C(=O)Nc1ccc2[nH]ncc2c1` [Compound 82, (S)-[5-AMINO-1-(1H-INDAZOL-5-YLCARBAMOYL)-PENTYL]-CARBAMIC ACID 9H-FLUOREN-9-YLMETHYL ESTER] was run?
Answer: The IC50 was > 50 µM.

Question: `Cc1ccc(NC(=O)[C@H](CCCCN)NC(=O)Nc2cccc(Oc3ccccc3)c2)cc1` [Compound 98, (S)-6-AMINO-2-[3-(3-PHENOXY-PHENYL)-UREIDO]-HEXANOIC ACID P-TOLYLAMIDE] was tested. Which IC50 did it give?
Answer: The IC50 was > 50 µM.

Question: Which IC50 does the source give for `O=C(CC1CNCCN1C(=O)NCc1ccc(Cl)cc1)Nc1ccc(C2CCCCC2)cc1` (stereo not shown) [Compound 159, 2-[(4-CYCLOHEXYL-PHENYLCARBAMOYL)-METHYL]-PIPERAZINE-1-CARBOXYLIC ACID 4-CHLORO-BENZYLAMIDE] here?
Answer: Its IC50 is 10 to 50 µM.

Question: Which IC50 does the source give for `Cc1ccc(COc2ccc(NC(=O)NC(CCCCN)C(=O)Nc3ccc(C)cc3)cc2)cc1` [Compound 301, (S)-6-AMINO-2-{3-[4-(4-METHYL-BENZYLOXY)-PHENYL]-UREIDO}-HEXANOIC ACID P-TOLYLAMIDE] here?
Answer: Its IC50 is > 50 µM.

Question: `Cc1ccc(NC(=O)C2CCCCN2C(=O)OCC2c3ccccc3-c3ccccc32)cc1` [Compound 123, (R)-2-P-TOLYLCARBAMOYL-PIPERIDINE-1-CARBOXYLIC ACID 9H-FLUOREN-9-YLMETHYL ESTER] was tested. Which IC50 did it give?
Answer: The IC50 was > 50 µM.

Question: Which IC50 does the source give for `Cc1ccc(NC(=O)[C@H](CCCCN)NC(=O)Nc2ccc(OCc3c(F)cccc3F)cc2)cc1` [Compound 287, (S)-6-AMINO-2-{3-[4-(2,6-DIFLUORO-BENZYLOXY)-PHENYL]-UREIDO}-HEXANOIC ACID P-TOLYLAMIDE] here?
Answer: Its IC50 is 10 to 50 µM.

Question: Which IC50 does the source give for `Cc1ccc(NC(=O)[C@H](CCCCN)NC(=O)OCC2c3ccccc3-c3ccccc32)cc1C` [Compound 216, (S)-[5-AMINO-1-(3,4-DIMETHYL-PHENYLCARBAMOYL)-PENTYL]-CARBAMIC ACID 9H-FLUOREN-9-YLMETHYL ESTER] here?
Answer: Its IC50 is 10 to 50 µM.

Question: For `NCCCC[C@H](NC(=O)Nc1cccc2ccccc12)C(=O)Nc1ccc(CN(C(=O)c2ccco2)C2CCCCC2)cc1` [Compound 31, (S)-FURAN-2-CARBOXYLIC ACID {4-[6-AMINO-2-(3-NAPHTHALEN-1-YL-UREIDO)-HEXANOYLAMINO]-BENZYL}-CYCLOHEXYL-AMIDE], which IC50 is on record?
Answer: Its IC50 is 10 to 50 µM.

Question: How did the IC50 turn out when `CNC(Cc1c[nH]c2ccccc12)C(=O)NC(CCCCN)C(=O)Nc1ccc(C)cc1` [Compound 90, (S)-6-AMINO-2-[3-(1H-INDOL-3-YL)-2-(S)-METHYLAMINO-PROPIONYLAMINO]-HEXANOIC ACID P-TOLYLAMIDE] was run?
Answer: Its IC50 is > 50 µM.

Question: With `COc1ccc(CNCC(=O)N[C@@H](CCCCN)C(=O)Nc2ccc(C)cc2)cc1` [Compound 343, (S)-6-AMINO-2-[2-(4-METHOXY-BENZYLAMINO)-ACETYLAMINO]-HEXANOIC ACID P-TOLYLAMIDE] as the molecule, how does the IC50 read?
Answer: The IC50 was > 50 µM.

Question: For `CC(=O)Nc1cccc(NC(=O)[C@H](CCCCN)NC(=O)OCC2c3ccccc3-c3ccccc32)c1` [Compound 231, (S)-[1-(3-ACETYLAMINO-PHENYLCARBAMOYL)-5-AMINO-PENTYL]-CARBAMIC ACID 9H-FLUOREN-9-YLMETHYL ESTER], which IC50 is on record?
Answer: The IC50 was > 50 µM.

Question: How did the IC50 turn out when `CC(C)(C)c1ccc(NC(=O)[C@H](Cc2ccc(CN)cc2)NC(=O)Nc2ccc(-c3ccccc3)cc2)cc1` [Compound 150, (S)-3-(4-AMINOMETHYL-PHENYL)-2-(3-BIPHENYL-4-YL-UREIDO)-N-(4-TERT-BUTYL-PHENYL)-PROPIONAMIDE] was run?
Answer: Its IC50 is < 10 µM.

Question: `Cc1ccc(NC(=O)C(CCCCN)NC(=O)OCC2c3ccccc3-c3ccccc32)cn1` (stereo not shown) [Compound 294, [5-AMINO-1-(6-METHYL-PYRIDIN-3-YLCARBAMOYL)-PENTYL]-CARBAMIC ACID 9H-FLUOREN-9-YLMETHYL ESTER] was tested. Which IC50 did it give?
Answer: The IC50 was > 50 µM.
